Reference: patent publication US7317034B2, “Substituted C-furan-2-yl-methylamine and C-thiophen-2-yl-methylamine compounds” (Gruenenthal GmbH, priority 2001, dated 2008)

Tested on: binding site 2 of the sodium channel (BTX binding site)
Test: Binding to the sodium channel, binding site 2 (BTX binding), [3H]-batrachotoxinin A20 α-benzoate displacement
Settings: rat cerebrocortex synaptosomes; for BTX binding (10 μM): 10 μM test compound, ligand [3H]-batrachotoxinin A20 α-benzoate 10 nM, 120 min at 25° C.

Question: Which “BTX binding (10 μM)” value does the source give for “5-[1-(2-Chloro-phenylamino)-2-oxo-2-phenyl-ethyl]-2-methyl-furan-3-carboxylic acid ethyl ester” here?
Answer: 40%

Question: With “[3H]-batrachotoxinin A20 α-benzoate [reference compound]” as the compound, how does the Kd (radioligand [3H]-batrachotoxinin A20 α-benzoate, N=2, mean±SEM, read-out: KD value for that binding site) read?
Answer: 24.6 ± 1.56 nM

Question: For `COC(=O)c1cc(C(Nc2ccc(Cl)cc2F)C(=O)c2ccccc2)oc1C` (centres unmarked) [C, 5-[1-(4-Chloro-2-fluoro-phenylamino)-2-oxo-2-phenyl-ethyl]-2-methyl-furan-3-carboxylic acid methyl ester], which “BTX binding (10 μM)” value is on record?
Answer: 57%

Question: Which “BTX binding (10 μM)” value does the source give for `COC(=O)c1cc(C(Nc2ccc(Cl)cc2C)C(=O)c2ccccc2)oc1C` (centres unmarked) [Example B, 5-[1-(4-Chloro-2-methyl-phenylamino)-2-oxo-2-phenyl-ethyl]-2-methyl-furan-3-carboxylic acid methyl ester] here?
Answer: 55%

Question: How did the “BTX binding (10 μM)” value turn out when `CCOC(=O)c1cc(C(Nc2ccc(Cl)cc2C)C(=O)c2ccccc2)oc1C` (centres unmarked) [D, 5-[1-(4-Chloro-2-methyl-phenylamino)-2-oxo-2-phenyl-ethyl]-2-methyl-furan-3-carboxylic acid ethyl ester] was run?
Answer: 37%
